Among the data in PubChem BioAssay AID1963840 (Molecular Pharmacology Branch, DTP, NCI, 2024) are viability, T/C values, retold here.

SMILES strings stand for the structures.
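Note: spheroids exposed to compounds for seven days; 100% = DMSO vehicle control viability.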

In one test the test system is 695427-040-R-J1-PDC complex spheroid viability. The test is described as follows: Anticancer human tumor 695427-040-R-J1-PDC patient-derived colon adenocarcinoma cell line growth inhibition [POLQ]. The following applies: second compound 0.316 µM; first compound 1 µM; hits give low values. Put shortly:
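PDC + HUVEC + MSC complex spheroids; POLQ inhibitors ± partner drugs; top conc. at/near clinical Cmax, else 10 microM (SN-38 1 microM), half-log dilutions; 37 degrees C, 5% CO2.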
Regarding `C=CC(=O)N1CCN(c2nc(=O)n(-c3c(C)ccnc3C(C)C)c3nc(-c4c(O)cccc4F)c(F)cc23)C(C)C1` (configuration not stated) + Cc1cccc(N(C)C(=O)C2C(O)CCN2c2nc(C)cc(C(F)(F)F)c2C#N)c1, the viability, T/C (as a rule, the ratio of treated to control) was 104%.

Take `CC(C)n1c(=O)n(C)c2cnc3cc(F)c(-c4ccc(OCCCN5CCCCC5)nc4)cc3c21` + Cc1cccc(N(C)C(=O)C2C(O)CCN2c2nc(C)cc(C(F)(F)F)c2C#N)c1: the viability, T/C was 113%.

Consider `CCc1cc2c(N3CCc4c(cc(Cn5ccnc5)cc4-c4cn(C)nc4C(F)(F)F)C3=O)cc(C)nc2c(OC)n1` + Cc1cccc(N(C)C(=O)C2C(O)CCN2c2nc(C)cc(C(F)(F)F)c2C#N)c1, for which the viability, T/C was 105%.

With `CCc1cc2c(N3CCc4c(cc(Cn5ccnc5)cc4-c4cn(C)nc4C(F)(F)F)C3=O)ccnc2c(OC)n1` + Cc1cccc(N(C)C(=O)C2C(O)CCN2c2nc(C)cc(C(F)(F)F)c2C#N)c1, the viability, T/C was 113%.

Still in this test, the particulars now being: second compound 0.316 µM; first compound 3.16 µM; hits give low values.
For the compound `C=CC(=O)N1CCN(c2nc(=O)n(-c3c(C)ccnc3C(C)C)c3nc(-c4c(O)cccc4F)c(F)cc23)C(C)C1` (configuration not stated) + Cc1cccc(N(C)C(=O)C2C(O)CCN2c2nc(C)cc(C(F)(F)F)c2C#N)c1, the viability, T/C was 101%.

Consider `CC(C)n1c(=O)n(C)c2cnc3cc(F)c(-c4ccc(OCCCN5CCCCC5)nc4)cc3c21` + Cc1cccc(N(C)C(=O)C2C(O)CCN2c2nc(C)cc(C(F)(F)F)c2C#N)c1, for which the viability, T/C is 92.7%.

As to `CCc1cc2c(N3CCc4c(cc(Cn5ccnc5)cc4-c4cn(C)nc4C(F)(F)F)C3=O)cc(C)nc2c(OC)n1` + Cc1cccc(N(C)C(=O)C2C(O)CCN2c2nc(C)cc(C(F)(F)F)c2C#N)c1, the viability, T/C was 110%.

Regarding `CCc1cc2c(N3CCc4c(cc(Cn5ccnc5)cc4-c4cn(C)nc4C(F)(F)F)C3=O)ccnc2c(OC)n1` + Cc1cccc(N(C)C(=O)C2C(O)CCN2c2nc(C)cc(C(F)(F)F)c2C#N)c1, the viability, T/C was 109%.

The same test, now with this note: second compound 0.316 µM; first compound 10 µM; hits give low values.
On to `C=CC(=O)N1CCN(c2nc(=O)n(-c3c(C)ccnc3C(C)C)c3nc(-c4c(O)cccc4F)c(F)cc23)C(C)C1` (configuration not stated) + Cc1cccc(N(C)C(=O)C2C(O)CCN2c2nc(C)cc(C(F)(F)F)c2C#N)c1, for which the viability, T/C is 106%.

For the compound `CC(C)n1c(=O)n(C)c2cnc3cc(F)c(-c4ccc(OCCCN5CCCCC5)nc4)cc3c21` + Cc1cccc(N(C)C(=O)C2C(O)CCN2c2nc(C)cc(C(F)(F)F)c2C#N)c1, the viability, T/C is 68.7%.

As for `CCc1cc2c(N3CCc4c(cc(Cn5ccnc5)cc4-c4cn(C)nc4C(F)(F)F)C3=O)cc(C)nc2c(OC)n1` + Cc1cccc(N(C)C(=O)C2C(O)CCN2c2nc(C)cc(C(F)(F)F)c2C#N)c1, the viability, T/C was 95.7%.

As for `CCc1cc2c(N3CCc4c(cc(Cn5ccnc5)cc4-c4cn(C)nc4C(F)(F)F)C3=O)ccnc2c(OC)n1` + Cc1cccc(N(C)C(=O)C2C(O)CCN2c2nc(C)cc(C(F)(F)F)c2C#N)c1, the viability, T/C is 81.3%.

Staying with this test, now noted: second compound 1 µM; first compound 0.0316 µM; hits give low values.
For the compound `C=CC(=O)N1CCN(c2nc(=O)n(-c3c(C)ccnc3C(C)C)c3nc(-c4c(O)cccc4F)c(F)cc23)C(C)C1` (configuration not stated) + Cc1cccc(N(C)C(=O)C2C(O)CCN2c2nc(C)cc(C(F)(F)F)c2C#N)c1, the viability, T/C is 98.1%.

Regarding `CC(C)n1c(=O)n(C)c2cnc3cc(F)c(-c4ccc(OCCCN5CCCCC5)nc4)cc3c21` + Cc1cccc(N(C)C(=O)C2C(O)CCN2c2nc(C)cc(C(F)(F)F)c2C#N)c1, the viability, T/C was 101%.

Consider `CCc1cc2c(N3CCc4c(cc(Cn5ccnc5)cc4-c4cn(C)nc4C(F)(F)F)C3=O)cc(C)nc2c(OC)n1` + Cc1cccc(N(C)C(=O)C2C(O)CCN2c2nc(C)cc(C(F)(F)F)c2C#N)c1, for which the viability, T/C was 117%.

For the compound `CCc1cc2c(N3CCc4c(cc(Cn5ccnc5)cc4-c4cn(C)nc4C(F)(F)F)C3=O)ccnc2c(OC)n1` + Cc1cccc(N(C)C(=O)C2C(O)CCN2c2nc(C)cc(C(F)(F)F)c2C#N)c1, the viability, T/C was 103%.

Still in this test, the particulars now being: second compound 1 µM; first compound 0.1 µM; hits give low values.
On to `C=CC(=O)N1CCN(c2nc(=O)n(-c3c(C)ccnc3C(C)C)c3nc(-c4c(O)cccc4F)c(F)cc23)C(C)C1` (configuration not stated) + Cc1cccc(N(C)C(=O)C2C(O)CCN2c2nc(C)cc(C(F)(F)F)c2C#N)c1, for which the viability, T/C is 98.5%.

For `CC(C)n1c(=O)n(C)c2cnc3cc(F)c(-c4ccc(OCCCN5CCCCC5)nc4)cc3c21` + Cc1cccc(N(C)C(=O)C2C(O)CCN2c2nc(C)cc(C(F)(F)F)c2C#N)c1, the viability, T/C was 102%.

For `CCc1cc2c(N3CCc4c(cc(Cn5ccnc5)cc4-c4cn(C)nc4C(F)(F)F)C3=O)cc(C)nc2c(OC)n1` + Cc1cccc(N(C)C(=O)C2C(O)CCN2c2nc(C)cc(C(F)(F)F)c2C#N)c1, the viability, T/C was 95.6%.

Turning to `CCc1cc2c(N3CCc4c(cc(Cn5ccnc5)cc4-c4cn(C)nc4C(F)(F)F)C3=O)ccnc2c(OC)n1` + Cc1cccc(N(C)C(=O)C2C(O)CCN2c2nc(C)cc(C(F)(F)F)c2C#N)c1, the viability, T/C is 108%.

Staying with this test, now noted: second compound 1 µM; first compound 0.316 µM; hits give low values.
Consider `C=CC(=O)N1CCN(c2nc(=O)n(-c3c(C)ccnc3C(C)C)c3nc(-c4c(O)cccc4F)c(F)cc23)C(C)C1` (configuration not stated) + Cc1cccc(N(C)C(=O)C2C(O)CCN2c2nc(C)cc(C(F)(F)F)c2C#N)c1, for which the viability, T/C is 97.8%.

With `CC(C)n1c(=O)n(C)c2cnc3cc(F)c(-c4ccc(OCCCN5CCCCC5)nc4)cc3c21` + Cc1cccc(N(C)C(=O)C2C(O)CCN2c2nc(C)cc(C(F)(F)F)c2C#N)c1, the viability, T/C is 105%.

For the compound `CCc1cc2c(N3CCc4c(cc(Cn5ccnc5)cc4-c4cn(C)nc4C(F)(F)F)C3=O)cc(C)nc2c(OC)n1` + Cc1cccc(N(C)C(=O)C2C(O)CCN2c2nc(C)cc(C(F)(F)F)c2C#N)c1, the viability, T/C is 88.3%.

With `CCc1cc2c(N3CCc4c(cc(Cn5ccnc5)cc4-c4cn(C)nc4C(F)(F)F)C3=O)ccnc2c(OC)n1` + Cc1cccc(N(C)C(=O)C2C(O)CCN2c2nc(C)cc(C(F)(F)F)c2C#N)c1, the viability, T/C is 105%.

Staying with this test, now noted: second compound 1 µM; first compound 1 µM; hits give low values.
With `C=CC(=O)N1CCN(c2nc(=O)n(-c3c(C)ccnc3C(C)C)c3nc(-c4c(O)cccc4F)c(F)cc23)C(C)C1` (configuration not stated) + Cc1cccc(N(C)C(=O)C2C(O)CCN2c2nc(C)cc(C(F)(F)F)c2C#N)c1, the viability, T/C is 99.4%.

As for `CC(C)n1c(=O)n(C)c2cnc3cc(F)c(-c4ccc(OCCCN5CCCCC5)nc4)cc3c21` + Cc1cccc(N(C)C(=O)C2C(O)CCN2c2nc(C)cc(C(F)(F)F)c2C#N)c1, the viability, T/C is 103%.

In the case of `CCc1cc2c(N3CCc4c(cc(Cn5ccnc5)cc4-c4cn(C)nc4C(F)(F)F)C3=O)cc(C)nc2c(OC)n1` + Cc1cccc(N(C)C(=O)C2C(O)CCN2c2nc(C)cc(C(F)(F)F)c2C#N)c1, the viability, T/C was 95.4%.

Regarding `CCc1cc2c(N3CCc4c(cc(Cn5ccnc5)cc4-c4cn(C)nc4C(F)(F)F)C3=O)ccnc2c(OC)n1` + Cc1cccc(N(C)C(=O)C2C(O)CCN2c2nc(C)cc(C(F)(F)F)c2C#N)c1, the viability, T/C is 103%.

Still in this test, the particulars now being: second compound 1 µM; first compound 3.16 µM; hits give low values.
Regarding `C=CC(=O)N1CCN(c2nc(=O)n(-c3c(C)ccnc3C(C)C)c3nc(-c4c(O)cccc4F)c(F)cc23)C(C)C1` (configuration not stated) + Cc1cccc(N(C)C(=O)C2C(O)CCN2c2nc(C)cc(C(F)(F)F)c2C#N)c1, the viability, T/C was 97.5%.

`CC(C)n1c(=O)n(C)c2cnc3cc(F)c(-c4ccc(OCCCN5CCCCC5)nc4)cc3c21` + Cc1cccc(N(C)C(=O)C2C(O)CCN2c2nc(C)cc(C(F)(F)F)c2C#N)c1: the viability, T/C was 102%.

Regarding `CCc1cc2c(N3CCc4c(cc(Cn5ccnc5)cc4-c4cn(C)nc4C(F)(F)F)C3=O)cc(C)nc2c(OC)n1` + Cc1cccc(N(C)C(=O)C2C(O)CCN2c2nc(C)cc(C(F)(F)F)c2C#N)c1, the viability, T/C is 108%.

On to `CCc1cc2c(N3CCc4c(cc(Cn5ccnc5)cc4-c4cn(C)nc4C(F)(F)F)C3=O)ccnc2c(OC)n1` + Cc1cccc(N(C)C(=O)C2C(O)CCN2c2nc(C)cc(C(F)(F)F)c2C#N)c1, for which the viability, T/C was 102%.

The same test, now with this note: second compound 1 µM; first compound 10 µM; hits give low values.
As to `C=CC(=O)N1CCN(c2nc(=O)n(-c3c(C)ccnc3C(C)C)c3nc(-c4c(O)cccc4F)c(F)cc23)C(C)C1` (configuration not stated) + Cc1cccc(N(C)C(=O)C2C(O)CCN2c2nc(C)cc(C(F)(F)F)c2C#N)c1, the viability, T/C is 102%.

Turning to `CC(C)n1c(=O)n(C)c2cnc3cc(F)c(-c4ccc(OCCCN5CCCCC5)nc4)cc3c21` + Cc1cccc(N(C)C(=O)C2C(O)CCN2c2nc(C)cc(C(F)(F)F)c2C#N)c1, the viability, T/C was 67.2%.

Turning to `CCc1cc2c(N3CCc4c(cc(Cn5ccnc5)cc4-c4cn(C)nc4C(F)(F)F)C3=O)cc(C)nc2c(OC)n1` + Cc1cccc(N(C)C(=O)C2C(O)CCN2c2nc(C)cc(C(F)(F)F)c2C#N)c1, the viability, T/C is 85.2%.

In the case of `CCc1cc2c(N3CCc4c(cc(Cn5ccnc5)cc4-c4cn(C)nc4C(F)(F)F)C3=O)ccnc2c(OC)n1` + Cc1cccc(N(C)C(=O)C2C(O)CCN2c2nc(C)cc(C(F)(F)F)c2C#N)c1, the viability, T/C was 82.7%.

Still in this test, the particulars now being: second compound 3.16 µM; first compound 0.0316 µM; hits give low values.
Consider `C=CC(=O)N1CCN(c2nc(=O)n(-c3c(C)ccnc3C(C)C)c3nc(-c4c(O)cccc4F)c(F)cc23)C(C)C1` (configuration not stated) + Cc1cccc(N(C)C(=O)C2C(O)CCN2c2nc(C)cc(C(F)(F)F)c2C#N)c1, for which the viability, T/C was 97.8%.

As for `CC(C)n1c(=O)n(C)c2cnc3cc(F)c(-c4ccc(OCCCN5CCCCC5)nc4)cc3c21` + Cc1cccc(N(C)C(=O)C2C(O)CCN2c2nc(C)cc(C(F)(F)F)c2C#N)c1, the viability, T/C was 98.5%.

For the compound `CCc1cc2c(N3CCc4c(cc(Cn5ccnc5)cc4-c4cn(C)nc4C(F)(F)F)C3=O)cc(C)nc2c(OC)n1` + Cc1cccc(N(C)C(=O)C2C(O)CCN2c2nc(C)cc(C(F)(F)F)c2C#N)c1, the viability, T/C was 99.8%.

For the compound `CCc1cc2c(N3CCc4c(cc(Cn5ccnc5)cc4-c4cn(C)nc4C(F)(F)F)C3=O)ccnc2c(OC)n1` + Cc1cccc(N(C)C(=O)C2C(O)CCN2c2nc(C)cc(C(F)(F)F)c2C#N)c1, the viability, T/C was 101%.

The same test, now with this note: second compound 3.16 µM; first compound 0.1 µM; hits give low values.
`C=CC(=O)N1CCN(c2nc(=O)n(-c3c(C)ccnc3C(C)C)c3nc(-c4c(O)cccc4F)c(F)cc23)C(C)C1` (configuration not stated) + Cc1cccc(N(C)C(=O)C2C(O)CCN2c2nc(C)cc(C(F)(F)F)c2C#N)c1: the viability, T/C was 84.5%.

In the case of `CC(C)n1c(=O)n(C)c2cnc3cc(F)c(-c4ccc(OCCCN5CCCCC5)nc4)cc3c21` + Cc1cccc(N(C)C(=O)C2C(O)CCN2c2nc(C)cc(C(F)(F)F)c2C#N)c1, the viability, T/C was 100%.
